From ChEMBL document CHEMBL1201862, “PubChem BioAssay data set” (2004)
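Protocol summary: plate cells (96-well), add compound at 5 concentrations, incubate 48 h, interpolate endpoints linearly. The concentration for 50% growth inhibition is given as GI50.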 The source made the active and inactive calls. No stated cut-off is given here; in the data, active = GI50 up to about 1.1 µM and inactive = higher.

Experiments:
Assay in all cases: NCI tumour cell line growth inhibition, 48 h
[1] = system: MOLT-4
[2] = system: NCI-H226
[3] = system: NCI-H460
[4] = system: SNB-75
[5] = system: T47D
[6] = system: OVCAR-5
[7] = system: HCT-116
[8] = system: SK-MEL-28
[9] = system: UACC-257
[10] = system: CAKI-1
[11] = system: UO-31
[12] = system: UACC-62
[13] = system: HCT-15
[14] = system: RXF 393
[15] = system: HOP-62
[16] = system: BT-549
[17] = system: COLO 205
[18] = system: NCI/ADR-RES
[19] = system: Hs-578T
[20] = system: Malme-3M

Row | Structure (SMILES) | GI50 [1] | GI50 [2] | GI50 [3] | GI50 [4] | GI50 [5] | GI50 [6] | GI50 [7] | GI50 [8] | GI50 [9] | GI50 [10] | GI50 [11] | GI50 [12] | GI50 [13] [µM] | GI50 [14] | GI50 [15] | GI50 [16] | GI50 [17] | GI50 [18] | GI50 [19] | GI50 [20]
1 | N#CI1OC(=O)c2ccccc21 | 92.9 µM (inactive) | > 100 µM (inactive) | > 100 µM (inactive) | > 100 µM (inactive) | > 100 µM (inactive) | > 100 µM (inactive) | > 100 µM (inactive) | 92 µM (inactive) | > 100 µM (inactive) | 40.7 µM (inactive) | > 100 µM (inactive) | > 100 µM (inactive) | 37.2 | > 100 µM (inactive) | > 100 µM (inactive) | 91.2 µM (inactive) | > 100 µM (inactive) | > 100 µM (inactive) |  | 
2 | COC(=O)CN1CCN(c2cccc3c2CCCC3)CC1 | 44.5 µM (inactive) | 23.4 µM (inactive) | 46.8 µM (inactive) | 43.6 µM (inactive) | 98.2 µM (inactive) | 48.9 µM (inactive) | 32.4 µM (inactive) |  | 50.6 µM (inactive) | > 100 µM (inactive) | 92.3 µM (inactive) | > 100 µM (inactive) | > 100 | > 100 µM (inactive) | > 100 µM (inactive) |  | 29.2 µM (inactive) | 24.5 µM (inactive) | > 100 µM (inactive) | 24.5 µM (inactive)
3 | CCOC(=O)c1c(SC(=O)c2ccc(Cl)cc2)n(-c2ccccc2)c(=S)n(-c2ccccc2)c1=O | > 100 µM (inactive) | > 100 µM (inactive) | > 100 µM (inactive) | > 100 µM (inactive) | > 100 µM (inactive) | > 100 µM (inactive) | > 100 µM (inactive) | > 100 µM (inactive) | > 100 µM (inactive) | > 100 µM (inactive) |  | > 100 µM (inactive) | > 100 | > 100 µM (inactive) | > 100 µM (inactive) |  | > 100 µM (inactive) | > 100 µM (inactive) | > 100 µM (inactive) | > 100 µM (inactive)
4 | CCOc1ccccc1NC(=O)CCC(=O)OC | > 100 µM (inactive) | > 100 µM (inactive) | > 100 µM (inactive) | > 100 µM (inactive) |  | > 100 µM (inactive) | > 100 µM (inactive) | > 100 µM (inactive) | > 100 µM (inactive) | > 100 µM (inactive) | > 100 µM (inactive) | > 100 µM (inactive) | > 74.5 | > 100 µM (inactive) | > 100 µM (inactive) |  | > 58.2 µM (inactive) |  |  | > 100 µM (inactive)
5 | O=C(Nc1nccs1)c1cc(C2=CC=CC([N+](=O)[O-])C=C2)nc(S)n1 (centres undefined) | > 100 µM (inactive) | > 100 µM (inactive) | > 100 µM (inactive) | > 100 µM (inactive) |  | > 100 µM (inactive) | > 100 µM (inactive) | > 100 µM (inactive) | > 100 µM (inactive) | > 100 µM (inactive) | > 100 µM (inactive) | > 100 µM (inactive) | > 100 | > 100 µM (inactive) | > 100 µM (inactive) |  | > 100 µM (inactive) |  |  | > 100 µM (inactive)
6 | CCCNCCCC(NC(C)=O)C(=O)NCc1ccccc1 (centres undefined) | > 100 µM (inactive) | > 100 µM (inactive) | > 100 µM (inactive) | 51.8 µM (inactive) |  | > 100 µM (inactive) | > 100 µM (inactive) | > 100 µM (inactive) | > 100 µM (inactive) | > 100 µM (inactive) | > 100 µM (inactive) | > 100 µM (inactive) | > 100 | > 100 µM (inactive) | > 100 µM (inactive) |  | > 100 µM (inactive) |  |  | > 100 µM (inactive)
7 | O=C(N/N=C/c1ccc(Cl)cc1)c1cc(I)cc(I)c1O | > 100 µM (inactive) | > 100 µM (inactive) |  | 94.2 µM (inactive) | > 100 µM (inactive) | > 100 µM (inactive) | > 100 µM (inactive) | > 100 µM (inactive) | > 100 µM (inactive) | > 100 µM (inactive) | > 100 µM (inactive) |  | > 100 | > 100 µM (inactive) | > 100 µM (inactive) | > 100 µM (inactive) | > 100 µM (inactive) | > 100 µM (inactive) |  | 
8 | O=S(=O)(O)c1ccc(O)c2ncc(Cl)cc12 | > 100 µM (inactive) | > 100 µM (inactive) | > 100 µM (inactive) | > 100 µM (inactive) | > 100 µM (inactive) | > 100 µM (inactive) | > 100 µM (inactive) | > 100 µM (inactive) | > 100 µM (inactive) | > 100 µM (inactive) | > 100 µM (inactive) | > 100 µM (inactive) | > 100 | > 100 µM (inactive) | > 100 µM (inactive) | > 100 µM (inactive) | > 100 µM (inactive) | > 100 µM (inactive) |  | 
9 | CCOP(=O)(OCC)OC1C=CC2CCC1C2 (centres undefined) | > 100 µM (inactive) | > 100 µM (inactive) | > 100 µM (inactive) | > 100 µM (inactive) |  | > 100 µM (inactive) | > 100 µM (inactive) | > 100 µM (inactive) | > 100 µM (inactive) | > 100 µM (inactive) | > 100 µM (inactive) | > 100 µM (inactive) | 20.7 | > 100 µM (inactive) | > 100 µM (inactive) |  | > 100 µM (inactive) |  |  | > 100 µM (inactive)
10 | NC(=O)N/N=C1/CCCC/C1=C\c1ccccc1 | 36.6 µM (inactive) | > 100 µM (inactive) | > 100 µM (inactive) | 76.6 µM (inactive) |  | > 100 µM (inactive) | > 100 µM (inactive) | > 100 µM (inactive) | > 100 µM (inactive) | > 100 µM (inactive) | 80.9 µM (inactive) | > 100 µM (inactive) | > 100 | > 100 µM (inactive) | > 100 µM (inactive) |  | > 100 µM (inactive) |  |  | > 100 µM (inactive)
11 | COc1ccc(C2CCC(Cl)(OC)CC2C=O)cc1 (centres undefined) | 47.5 µM (inactive) | > 100 µM (inactive) | > 100 µM (inactive) | 31.4 µM (inactive) |  | > 100 µM (inactive) | 52 µM (inactive) | 21 µM (inactive) | > 100 µM (inactive) | 39.8 µM (inactive) | 80.4 µM (inactive) | 58.7 µM (inactive) | 49.4 | 0.128 µM (active) | 94 µM (inactive) |  | > 100 µM (inactive) |  |  | 44.9 µM (inactive)
12 | CCN(CC)CCN1C(=O)C(=O)N(c2cccc3ccccc23)C1=O | > 10 µM (inactive) | > 10 µM (inactive) | > 10 µM (inactive) | > 10 µM (inactive) | > 10 µM (inactive) | > 10 µM (inactive) | > 10 µM (inactive) | > 10 µM (inactive) |  | > 10 µM (inactive) | > 10 µM (inactive) | > 10 µM (inactive) | > 10 | > 10 µM (inactive) | > 10 µM (inactive) |  | > 10 µM (inactive) | > 10 µM (inactive) | 8.65 µM (inactive) | > 10 µM (inactive)
13 | CCCCCCCCCCCCCCCCOCC(CC(F)(F)P(=O)(OCC)OCC)OC(C)=O (centres undefined) | 28.1 µM (inactive) | 14.4 µM (inactive) | 10.7 µM (inactive) | 17.5 µM (inactive) |  | 18.3 µM (inactive) | 3.17 µM (inactive) | 17.8 µM (inactive) | 17.5 µM (inactive) | 16.6 µM (inactive) | 16 µM (inactive) | 15.3 µM (inactive) | 5.94 | 23.8 µM (inactive) |  | 15.2 µM (inactive) | 18.2 µM (inactive) | 16.3 µM (inactive) |  | 10.6 µM (inactive)
14 | CC(C)(C)N/N=N/c1cn(C2OC(CO)C(O)C2O)c(=O)[nH]c1=O (centres undefined) | > 100 µM (inactive) | > 100 µM (inactive) | 64.9 µM (inactive) | > 100 µM (inactive) |  | > 100 µM (inactive) | 40.7 µM (inactive) | > 100 µM (inactive) | > 100 µM (inactive) | > 100 µM (inactive) | > 100 µM (inactive) | > 100 µM (inactive) | 43.5 | 61.4 µM (inactive) | > 100 µM (inactive) |  | 37.2 µM (inactive) |  |  | > 100 µM (inactive)
15 | O=c1[nH]c(=O)n(C2OC(CO)C(O)C2O)cc1Oc1ccccc1 (centres undefined) | > 100 µM (inactive) | > 100 µM (inactive) | > 100 µM (inactive) | > 100 µM (inactive) | > 100 µM (inactive) | > 100 µM (inactive) | > 100 µM (inactive) | > 100 µM (inactive) | > 100 µM (inactive) | > 100 µM (inactive) |  | > 100 µM (inactive) | > 100 | > 100 µM (inactive) | > 100 µM (inactive) |  | > 100 µM (inactive) | > 100 µM (inactive) | 98.9 µM (inactive) | > 100 µM (inactive)
16 | COc1ccc(OC)c2c1C1CCC(=O)N1CN2C(C)=O (centres undefined) | > 100 µM (inactive) | > 100 µM (inactive) | > 100 µM (inactive) | > 100 µM (inactive) | > 100 µM (inactive) | > 100 µM (inactive) | > 100 µM (inactive) | > 100 µM (inactive) | > 100 µM (inactive) | > 100 µM (inactive) | > 100 µM (inactive) | > 100 µM (inactive) | > 100 | > 100 µM (inactive) | > 100 µM (inactive) |  | > 100 µM (inactive) | > 100 µM (inactive) | > 100 µM (inactive) | > 100 µM (inactive)
17 | [O-][S+](Nc1ccccc1)c1ccccc1Oc1ccccc1 (centres undefined) | 19.1 µM (inactive) | 30.4 µM (inactive) | 35.3 µM (inactive) | 28.6 µM (inactive) |  | > 100 µM (inactive) | 34.1 µM (inactive) | 33.5 µM (inactive) | 51.2 µM (inactive) | 39.8 µM (inactive) | 20.9 µM (inactive) |  | 27.7 | 48.2 µM (inactive) | 32.7 µM (inactive) |  | > 100 µM (inactive) | 27.5 µM (inactive) | 2.84 µM (inactive) | 30.5 µM (inactive)
